Reference: PubChem BioAssay AID248 (DTP/NCI, 2004)
Inconclusive results and toxic doses are left out. No stated cut-off is given here; in the data, active means T/C of 150% or more; inactive means T/C below 125%.

System: L1210 leukemia ip in BDF1 mice, survival T/C
Experiment: NCI In Vivo Anticancer Drug Screen. Data for tumor model L1210 Leukemia (intraperitoneal) in B6D2F1 (BDF1) mice
Settings: endpoint: mean survival time, higher = longer survival
How it was run: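 Tumor was transplanted into mice, which were then dosed with test compound or vehicle alone. Survival was recorded for each group, and the treated figure was expressed relative to the control figure.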

[1] = dose: 50.0 mg/kg/injection, schedule: Q01DX001 (ip), vehicle: saline
[2] = dose: 100.0 mg/kg/injection, schedule: Q01DX001 (ip), vehicle: saline
[3] = dose: 200.0 mg/kg/injection, schedule: Q01DX001 (ip), vehicle: saline
[4] = dose: 400.0 mg/kg/injection, schedule: Q01DX001 (ip), vehicle: saline

Measured: T/C

COC1OC(C[N+](=O)[O-])C(OC(C)=O)C(OC(C)=O)C1OC(C)=O (configuration not stated)
inactive: dose: 100.0 mg/kg/injection, schedule: Q04DX002 (ip), vehicle: saline with Tween-80 102 % of control | dose: 200.0 mg/kg/injection, schedule: Q04DX002 (ip), vehicle: saline with Tween-80 109 % of control | dose: 400.0 mg/kg/injection, schedule: Q04DX002 (ip), vehicle: saline with Tween-80 95 % of control

NC(c1ccccc1)C1C(c2ccccc2)N1C1CCCCC1 (configuration not stated)
inactive: dose: 100.0 mg/kg/injection, schedule: Q04DX003 (ip), vehicle: Klucel (hydroxypropylcellulose) (HPC) 95 % of control | dose: 200.0 mg/kg/injection, schedule: Q04DX003 (ip), vehicle: Klucel (hydroxypropylcellulose) (HPC) 86 % of control | dose: 400.0 mg/kg/injection, schedule: Q04DX003 (ip), vehicle: Klucel (hydroxypropylcellulose) (HPC) 98 % of control

O=C(C(O)C(O)C(O)C(O)CO)N1CCC(c2ccccc2)(c2ccccc2)CC1 (configuration not stated)
inactive: dose: 100.0 mg/kg/injection, schedule: Q01DX003 (ip), vehicle: saline 91 % of control | dose: 200.0 mg/kg/injection, schedule: Q01DX003 (ip), vehicle: saline 94 % of control | dose: 400.0 mg/kg/injection, schedule: Q01DX003 (ip), vehicle: saline 87 % of control

CC1(C)CC(=O)C(c2ccccc2[N+](=O)[O-])=C(O)C1
inactive: [1] 102 % of control | [2] 105 % of control | [3] 90 % of control | [4] 94 % of control

O=Nc1ccc(O)c2ccccc12
inactive: dose: 50.0 mg/kg/injection, schedule: Q01DX009 (ip), vehicle: Klucel (hydroxypropylcellulose) (HPC) 100 % of control | dose: 100.0 mg/kg/injection, schedule: Q01DX009 (ip), vehicle: Klucel (hydroxypropylcellulose) (HPC) 100 % of control | dose: 200.0 mg/kg/injection, schedule: Q01DX009 (ip), vehicle: Klucel (hydroxypropylcellulose) (HPC) 95 % of control

Cc1ccc(N=Nc2c(C)nn(C(N)=S)c2C)cc1
inactive: dose: 75.0 mg/kg/injection, schedule: Q01DX001 (ip), vehicle: other 100 % of control | dose: 150.0 mg/kg/injection, schedule: Q01DX001 (ip), vehicle: other 103 % of control

O=C(O)C1CCCN1Cc1cc2ccccc2c2ccccc12 (configuration not stated)
inactive: [1] 112 % of control | [2] 96 % of control | [3] 96 % of control | [4] 96 % of control

CCN=C(c1ccc(NC(=O)c2ccc(C(=O)Nc3ccc(C(=NCC)N(CC)C(=O)OCC)cc3)cc2)cc1)N(CC)C(=O)OCC
inactive: dose: 2.0 mg/kg/injection, schedule: Q01DX015 (ip), vehicle: methylcellulose (MC) 101 % of control | dose: 4.0 mg/kg/injection, schedule: Q01DX015 (ip), vehicle: methylcellulose (MC) 104 % of control | dose: 8.0 mg/kg/injection, schedule: Q01DX015 (ip), vehicle: methylcellulose (MC) 97 % of control | dose: 16.0 mg/kg/injection, schedule: Q01DX015 (ip), vehicle: methylcellulose (MC) 100 % of control | dose: 31.0 mg/kg/injection, schedule: Q01DX015 (ip), vehicle: methylcellulose (MC) 102 % of control | dose: 62.0 mg/kg/injection, schedule: Q01DX015 (ip), vehicle: methylcellulose (MC) 98 % of control | dose: 125.0 mg/kg/injection, schedule: Q01DX015 (ip), vehicle: methylcellulose (MC) 96 % of control | dose: 250.0 mg/kg/injection, schedule: Q01DX015 (ip), vehicle: methylcellulose (MC) 95 % of control | dose: 375.0 mg/kg/injection, schedule: Q01DX015 (ip), vehicle: methylcellulose (MC) 91 % of control | dose: 500.0 mg/kg/injection, schedule: Q01DX015 (ip), vehicle: methylcellulose (MC) 101 % of control

O=S(=O)(Cc1ccccc1)C(Cl)c1ccccc1 (configuration not stated)
inactive: [2] 115 % of control | [3] 101 % of control | [4] 89 % of control

C=CCCCCCCCCC(=O)NC/C(Br)=C/Br
inactive: dose: 75.0 mg/kg/injection, schedule: Q01DX009 (ip), vehicle: Klucel (hydroxypropylcellulose) (HPC) 103 % of control | dose: 150.0 mg/kg/injection, schedule: Q01DX009 (ip), vehicle: Klucel (hydroxypropylcellulose) (HPC) 108 % of control | dose: 300.0 mg/kg/injection, schedule: Q01DX009 (ip), vehicle: Klucel (hydroxypropylcellulose) (HPC) 93 % of control

O=C(COc1ccc(Cl)c(Cl)c1)N(Cc1ccccc1)Cc1ccc[n+](Cc2ccc(S(=O)(=O)F)cc2)c1
inactive: dose: 100.0 mg/kg/injection, schedule: Q04DX003 (ip), vehicle: saline with Tween-80 102 % of control | dose: 200.0 mg/kg/injection, schedule: Q04DX003 (ip), vehicle: saline with Tween-80 96 % of control

S=c1cccc[nH]1.[Pb]
inactive: dose: 100.0 mg/kg/injection, schedule: Q04DX002 (ip), vehicle: gum acacia 103 % of control | dose: 200.0 mg/kg/injection, schedule: Q04DX002 (ip), vehicle: gum acacia 100 % of control
